Laboratory results reported in patent US10647675B2 (priority 2015, dated 2020).
Converted amounts (≈) assume the structure as drawn.

Key:
[1] = system: Trichophyton mentagrophytes SM-110; test: Antifungal activity evaluation test: minimum inhibitory concentration (MIC), broth dilution by reference to CLSI M38-A2; type: cell-based; conditions: SM110, read-out: MIC (T. menta.)
How it was run: (§1)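 MIC read visually as lowest concentration inhibiting growth by at least 80% relative to control after 4 days at 35° C. Trichophyton strains inoculated at 2×10^3 cells/mL final in MOPS-buffered RPMI 1640 (pH 7.0); compounds as 2-fold DMSO series, CLSI M38-A2 basis.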

[2] = system: Trichophyton rubrum KD-1130; test: as above; type: cell-based; conditions: KD1130, read-out: MIC (T. rubrum)
How it was run: as §1

| MIC [1] | MIC [2] | Structure (SMILES) |
| --- | --- | --- |
| 0.2 to 0.78 µg/mL (≈ 0.649 to 2.53 µM) | 1.56 to 6.25 µg/mL (≈ 5.06 to 20.3 µM) | COc1ccc(Oc2ncccc2-c2cnccc2OC)cc1 [I-242, 4′-methoxy-2-(4-methoxyphenoxy)-3,3′-bipyridine] |
| ≤ 0.1 µg/mL | ≤ 0.1 µg/mL | Cc1ccncc1-c1cccnc1Oc1ccc(C(C)(F)F)c(F)c1 [I-305, 2-[4-(1,1-difluoroethyl)-3-fluorophenoxy]-4′-methyl-3,3′-bipyridine] |
| 0.2 to 0.78 µg/mL (≈ 0.637 to 2.49 µM) | 1.56 to 6.25 µg/mL (≈ 4.97 to 19.9 µM) | COc1ccncc1-c1cncnc1Oc1ccc(Cl)cc1 [I-357, 4-(4-chlorophenoxy)-5-(4-methoxypyridin-3-yl)pyrimidine] |
| 1.56 to 6.25 µg/mL (≈ 4.57 to 18.3 µM) | 1.56 to 6.25 µg/mL (≈ 4.57 to 18.3 µM) | CCOc1ncc(Oc2ncccc2-c2ccc(F)cc2OC)cn1 [I-187, 2-ethoxy-5-{[3-(4-fluoro-2-methoxyphenyl)pyridin-2-yl]oxy}pyrimidine] |
| 0.2 to 0.78 µg/mL (≈ 0.653 to 2.55 µM) | 0.2 to 0.78 µg/mL (≈ 0.653 to 2.55 µM) | COc1ccncc1-c1cccnc1Oc1ccc(C)c(C)c1 [I-262, 2-(3,4-dimethylphenoxy)-4′-methoxy-3,3′-bipyridine] |
| 1.56 to 6.25 µg/mL (≈ 4.1 to 16.4 µM) | 1.56 to 6.25 µg/mL (≈ 4.1 to 16.4 µM) | COc1ccncc1-c1cc(Cl)cnc1Oc1ccc(C(F)(F)F)cc1 [I-217, 5-chloro-4′-methoxy-2-[4-(trifluoromethyl)phenoxy]-3,3′-bipyridine] |
| ≤ 0.1 µg/mL | ≤ 0.1 µg/mL | COc1ccccc1-c1cncnc1Oc1ccc(C(F)(F)F)nc1 [I-310, 5-(2-methoxyphenyl)-4-{[6-(trifluoromethyl)pyridin-3-yl]oxy}pyrimidine] |
| ≤ 0.1 µg/mL | ≤ 0.1 µg/mL | COc1ncccc1-c1cccnc1Oc1ccc(CCn2cccn2)cc1 [I-400, 2-{4-[2-(1H-pyrazol-1-yl)ethyl]phenoxy}-2′-methoxy-3,3′-bipyridine] |
| ≤ 0.1 µg/mL | ≤ 0.1 µg/mL | Cc1cnn(-c2ccc(Oc3ncccc3-c3cnccc3C)cc2)c1 [I-432] |
| 0.2 to 0.78 µg/mL (≈ 0.563 to 2.2 µM) | 0.2 to 0.78 µg/mL (≈ 0.563 to 2.2 µM) | FC(F)(F)c1ccc(Oc2ncccc2-c2cccc3cc[nH]c23)cn1 [I-42, 7-(2-{[6-(trifluoromethyl)pyridin-3-yl]oxy}pyridin-3-yl)-1H-indole] |
| ≤ 0.1 µg/mL | ≤ 0.1 µg/mL | COc1ncncc1-c1cccnc1Oc1ccc2c(c1)CCCC2 [I-271, 4′-methoxy-5-{2-[(5,6,7,8-tetrahydronaphthalen-2-yl)oxy]pyridin-3-yl}pyrimidine] |
| ≤ 0.1 µg/mL | ≤ 0.1 µg/mL | C#Cc1ccc(Oc2ncccc2-c2cccnc2OC)cc1 [I-390, 2-(4-ethynylphenoxy)-2′-methoxy-3,3′-bipyridine] |
| ≤ 0.1 µg/mL | ≤ 0.1 µg/mL | COc1ccc(OC)c(-c2cccnc2Oc2ccc(C(C)(F)F)nc2)c1 [I-84, 2-{[6-(1,1-difluoroethyl)pyridin-3-yl]oxy}-3-(2,5-dimethoxyphenyl)pyridine] |
| 0.2 to 0.78 µg/mL (≈ 0.576 to 2.25 µM) | ≤ 0.1 µg/mL | Cc1nn(C)c(C)c1-c1cccnc1Oc1ccc(C(F)(F)F)cc1 [I-341, 2-[4-(trifluoromethyl)phenoxy]-3-(1,3,5-trimethyl-1H-pyrazol-4-yl)pyridine] |

More lines, now with the values behind:

| Structure (SMILES) | MIC [1] | MIC [2] |
| --- | --- | --- |
| COc1ccccc1-c1cncnc1Oc1ccc(C(F)(F)F)cc1 [I-321, 5-(2-methoxyphenyl)-4-[4-(trifluoromethyl)phenoxy]pyrimidine] | ≤ 0.1 µg/mL | ≤ 0.1 µg/mL |
| COc1c(Cl)cncc1-c1cccnc1Oc1ccc(C(F)(F)F)cc1 [I-211, 5′-chloro-4′-methoxy-2-[4-(trifluoromethyl)phenoxy]-3,3′-bipyridine] | ≤ 0.1 µg/mL | ≤ 0.1 µg/mL |
| CCc1ccc(Oc2ncccc2-c2cncc(C=O)c2OC)cc1 [I-287, 2′-(4-ethylphenoxy)-4-methoxy-(3,3′-bipyridine)-5-carbaldehyde] | 0.2 to 0.78 µg/mL (≈ 0.598 to 2.33 µM) | 0.2 to 0.78 µg/mL (≈ 0.598 to 2.33 µM) |
| Cc1nn2c(c1-c1cccnc1Oc1ccc(C(F)(F)F)cc1)OCCCC2 [I-233, 2-methyl-3-{2-[4-(trifluoromethyl)phenoxy]pyridin-3-yl}-5,6,7,8-tetrahydropyrazolo[1,5-b][1,3]oxazepine] | 0.2 to 0.78 µg/mL (≈ 0.514 to 2 µM) | 0.2 to 0.78 µg/mL (≈ 0.514 to 2 µM) |
| CCOCCc1ccc(Oc2ncccc2-c2cccnc2OC)cc1 [I-396, 2-[4-(2-ethoxyethyl)phenoxy]2′-methoxy-3,3′-bipyridine] | ≤ 0.1 µg/mL | ≤ 0.1 µg/mL |
| COc1ccncc1-c1cccnc1Oc1ccc(C2CC2)nc1 [I-133, 2-[(6-cyclopropylpyridin-3-yl)oxy]-4′-methoxy-3,3′-bipyridine] | 1.56 to 6.25 µg/mL (≈ 4.88 to 19.6 µM) | 1.56 to 6.25 µg/mL (≈ 4.88 to 19.6 µM) |
| COc1ncncc1-c1cccnc1Oc1ccc(C(F)(F)F)cc1 [I-219, 4-methoxy-5-{2-[4-(trifluoromethyl)phenoxy]pyridin-3-yl}pyrimidine] | ≤ 0.1 µg/mL | ≤ 0.1 µg/mL |
| COc1ncccc1-c1cccnc1Oc1ccc(CCn2cc(C)cn2)cc1 [I-401, 2-methoxy-2′-{4-[2-(4-methyl-1H-pyrazol-1-yl)ethyl]phenoxy}-3,3′-bipyridine] | ≤ 0.1 µg/mL | ≤ 0.1 µg/mL |
| FC(F)(F)c1ccc(Oc2ncccc2-c2cccc3c2OCCC3)cn1 [I-38, 3-(chroman-8-yl)-2-{[6-(trifluoromethyl)pyridin-3-yl]oxy}pyridine] | ≤ 0.1 µg/mL | ≤ 0.1 µg/mL |
| CCc1ccc(Oc2ncccc2-c2cnccc2C)cc1 [I-289, 2-(4-ethylphenoxy)-4′-methyl-3,3′-bipyridine] | ≤ 0.1 µg/mL | ≤ 0.1 µg/mL |
| FC(F)(F)c1ccc(Oc2ncccc2-c2cccn3ccnc23)cc1 [I-229, 8-{2-[4-(trifluoromethyl)phenoxy]pyridin-3-yl}imidazo[1,2-a]pyridine] | 0.2 to 0.78 µg/mL (≈ 0.563 to 2.2 µM) | 1.56 to 6.25 µg/mL (≈ 4.39 to 17.6 µM) |
| COC(=O)CN(C)c1ncc(Oc2ncccc2-c2cccnc2OC)cn1 [I-354, methyl 2-[(5-{[2′-methoxy-(3,3′-bipyridin)-2-yl]oxy}-pyrimidin-2-yl)(methyl)amino]acetate] | ≤ 0.1 µg/mL | 0.2 to 0.78 µg/mL (≈ 0.524 to 2.05 µM) |
| c1cnc(Oc2cnc3c(c2)CCC3)c(-c2cccc3c2OCC3)c1 [I-138, 3-{[3-(2,3-dihydrobenzofuran-7-yl)pyridin-2-yl]oxy}-6,7-dihydro-5H-cyclopenta[b]pyridine] | ≤ 0.1 µg/mL | ≤ 0.1 µg/mL |
| Cc1ncc(-c2ccc(Oc3ncccc3-c3cnccc3C)cc2)o1 [I-423] | ≤ 0.1 µg/mL | ≤ 0.1 µg/mL |
| COc1ncccc1-c1cccnc1Oc1ccc(CCOC(C)=O)cc1 [I-397, 4-{[(2′-methoxy)-(3,3′-bipyridin)-2-yl]oxy}phenethyl acetate] | ≤ 0.1 µg/mL | ≤ 0.1 µg/mL |
| Cc1ncccc1-c1cccnc1Oc1ccc(C(F)(F)F)nc1 [I-24, 2-methyl-2′-{[6-(trifluoromethyl)pyridin-3-yl]oxy}-3,3′-bipyridine] | 1.56 to 6.25 µg/mL (≈ 4.71 to 18.9 µM) | 1.56 to 6.25 µg/mL (≈ 4.71 to 18.9 µM) |
| CC(F)(F)c1ccc(Oc2ncccc2-c2cccc3ccnn23)cc1 [I-307, 7-{2-[4-(1,1-difluoroethyl)-phenoxy]pyridin-3-yl}pyrazolo[1,5-a]pyridine] | ≤ 0.1 µg/mL | ≤ 0.1 µg/mL |
| COc1ccccc1-c1cccnc1Oc1cnc(C(F)(F)F)nc1 [I-178] | ≤ 0.1 µg/mL | ≤ 0.1 µg/mL |
| COc1ccccc1-c1cccnc1Oc1ccc2c(c1)C(=O)CCC2 [I-273, 7-{[3-(2-methoxyphenyl)pyridin-2-yl]oxy}-3,4-dihydronaphthalen-1(2H)-one] | ≤ 0.1 µg/mL | ≤ 0.1 µg/mL |
| FC(F)(F)c1ccc(Oc2ncccc2-c2ccccc2OCC2CCC2)cn1 [I-55, 3-[2-(cyclobutylmethoxy)phenyl]-2-{[6-(trifluoromethyl)pyridin-3-yl]oxy}pyridine] | 0.2 to 0.78 µg/mL (≈ 0.5 to 1.95 µM) | 0.2 to 0.78 µg/mL (≈ 0.5 to 1.95 µM) |
